Drawing on patent US20160176867A1, “MODIFIED BET-PROTEIN-INHIBITING DIHYDROQUINOXALINONES AND DIHYDROPYRIDOPYRAZINONES” (BAYER PHARMA AKTIENGESELLSCHAFT, priority 2013, published 2016), this text covers IC50 for twelve compounds.

Experiment [1] concerns the target T1, BRD4 bromo domain 2 [BRD4(2)] (Homo sapiens, UniProt O60885).
T1 construct: N-terminally His6-tagged BRD4(2) (amino acids 357-445); made in house; host or cells: E. coli
Nature of the experiment: BRD4/acetylated peptide H4 binding assay (TR-FRET), BRD4 bromo domain 2. The settings on record: inhibition of BRD4(2)/Ac-H4 peptide interaction. An excerpt:
(§1) Protein-Protein Interaction Assay: BRD4/Acetylated Peptide H4 Binding Assay
To assess the BRD4(2) binding strength of the substances described in this application, the ability thereof to inhibit the interaction between BRD4(2) and acetylated histone H4 in a dose-dependent manner was quantified.
(§2) For this purpose, a time-resolved fluorescence resonance energy transfer (TR-FRET) assay was used, which measures the binding between N-terminally His6-tagged BRD4(2) (amino acids 357-445) and a synthetic acetylated histone H4 (Ac-H4) peptide with sequence SGRGK(Ac)GGK(Ac)GLGK(Ac)GGAK(Ac)RHRKVLRDNGSGSK-biotin. The recombinant BRD4(2) protein produced in-house according to Filippakopoulos et al., Nature, 2010, 468:1119-1123 and Cell, 2012, 149:214-231, was expressed in E. coli and purified by means of (Ni-NTA) affinity and (Sephadex G-75) size exclusion chromatography. The Ac-H4 peptide can be purchased, for example, from Biosyntan (Berlin, Germany).
(§3) In the assay, typically 11 different concentrations of each substance (0.1 nM, 0.33 nM, 1.1 nM, 3.8 nM, 13 nM, 44 nM, 0.15 μM, 0.51 μM, 1.7 μM, 5.9 μM and 20 μM) were analysed as duplicates on the same microtitre plate. For this purpose, 100-fold concentrated solutions in DMSO were prepared by serial dilutions (1:3.4) of a 2 mM stock solution into a clear, 384-well microtitre plate (Greiner Bio-One, Frickenhausen, Germany). From this, 50 nl were transferred into a black test plate (Greiner Bio-One, Frickenhausen, Germany). The test was started by the addition of 2 μl of a 2.5-fold concentrated BRD4(2) solution (final concentration typically 100 nM in the 5 μl of reaction volume) in aqueous assay buffer [50 mM HEPES pH 7.5, 50 mM sodium chloride (NaCl); 50 mM potassium fluoride (KF); 0.25 mM CHAPS and 0.05% serum albumin (BSA)] to the substances in the test plate. This was followed by a 10-minute incubation step at 22° C. for the pre-equilibration of putative complexes between BRD4(2) and the substances. Subsequently, 3 μl of a 1.67-fold concentrated solution (in assay buffer) consisting of Ac-H4 peptide (83.5 nM) and TR-FRET detection reagents [83.5 nM anti-6His-XL665 (Cisbio Bioassays, Codolet, France) and 12.52 nM streptavidin-Eu), (Perkin Elmer, #W1024)] in assay buffer were added.
(§4) The mixture was then incubated in the dark at 22° C. for one hour and then at 4° C. for at least 3 hours and for no longer than overnight. The formation of BRD4(2)/Ac-H4 complexes was determined by the measurement of the resonance energy transfer from the streptavidin-Eu chelate to the anti-6His-XL665 antibody present in the reaction. For this purpose, the fluorescence emission was measured at 620 nm and 665 nm after excitation at 330-350 nm in a TR-FRET measuring instrument, for example a Rubystar or Pherastar (both from BMG Lab Technologies, Offenburg, Germany) or a Viewlux (Perkin-Elmer). The ratio of the emissions at 665 nm and at 622 nm was taken as an indicator of the amount of BRD4(2)/Ac-H4 complexes formed.
The data (ratios) obtained were normalized, with 0% inhibition corresponding to the mean from the measurements for a set of controls (typically 32 data points) in which all the reagents were present. In these, in place of test substances, 50 nl of DMSO (100%) were used. Inhibition of 100% corresponded to the mean from the measurements for a set of controls (typically 32 data points) in which all the reagents except BRD4(2) were present. The IC50 was determined by regression analysis based on a 4-parameter equation (minimum, maximum, IC50, Hill; Y=max+(min−max)/(1+(X/IC50)Hill)).

In experiment [2] the target is T2, BRD4 bromo domain 1 [BRD4(1)] (Homo sapiens, UniProt O60885).
T2 construct: N-terminally His6-tagged BRD4(1) (amino acids 67-152); made in house; host or cells: E. coli
As to the kind of experiment: BRD4/acetylated peptide H4 binding assay (TR-FRET), BRD4 bromo domain 1. The settings on record: inhibition of BRD4(1)/Ac-H4 peptide interaction.
Source text: as §1
To assess the BRD4(1) binding strength of the substances described in this application, the ability thereof to inhibit the interaction between BRD4(1) and acetylated histone H4 in a dose-dependent manner was quantified.
as §2, with “BRD4(1)” for “BRD4(2)”, “67-152)” for “357-445)”, “GRGK(Ac)GGK(Ac)GLGK(Ac)GGAK(Ac)RHGSGSK-biotin.” for “SGRGK(Ac)GGK(Ac)GLGK(Ac)GGAK(Ac)RHRKVLRDNGSGSK-biotin.”
as §3, with “concentrated BRD4(1)” for “concentrated BRD4(2)”, “typically 10” for “typically 100”, “chloride (NaCl),” for “chloride (NaCl); 50 mM potassium fluoride (KF);”, “between BRD4(1)” for “between BRD4(2)”, “substances.” for “substances. Subsequently, 3 μl of a 1.67-fold concentrated solution (in assay buffer) consisting of Ac-H4 peptide (83.5 nM) and TR-FRET detection reagents [83.5 nM anti-6His-XL665 (Cisbio Bioassays, Codolet, France) and 12.52 nM streptavidin-Eu), (Perkin Elmer, #W1024)] in assay buffer were added.”
as §4, with “BRD4(1)/Ac-H4” for “BRD4(2)/Ac-H4”, “cryptate” for “chelate”
The data (ratios) obtained were normalized, with 0% inhibition corresponding to the mean from the measurements for a set of controls (typically 32 data points) in which all the reagents were present. In these, in place of test substances, 50 nl of DMSO (100%) were used. Inhibition of 100% corresponded to the mean from the measurements for a set of controls (typically 32 data points) in which all the reagents except BRD4(1) were present. The IC50 was determined by regression analysis based on a 4-parameter equation (minimum, maximum, IC50, Hill; Y=max+(min−max)/(1+(X/IC50)Hill)).

As for `COCCN1c2nc(Nc3cccc(C(=O)NC4CCN(C)CC4)c3)ccc2N(C)C(=O)C1C` (racemic) [Example 98, 3-{[4-(2-methoxyethyl)-1,3-dimethyl-2-oxo-1,2,3,4-tetrahydropyrido[2,3-b]pyrazin-6-yl]amino}-N-(1-methylpiperidin-4-yl)benzamide], the 50% inhibitory concentration (IC50) in experiment [1] is 216 nM; in experiment [2] it was 531 nM.
As for `COCCN1c2nc(Nc3cccc(S(=O)(=O)N4CCOCC4)c3)ccc2N(C)C(=O)[C@@H]1C` (stereo in doubt) [Example 112, (3S)-4-(2-methoxyethyl)-1,3-dimethyl-6-{[3-(morpholin-4-ylsulphonyl)phenyl]amino}-3,4-dihydropyrido[2,3-b]pyrazin-2(1H)-one], the IC50 in experiment [1] was 57 nM; in experiment [2] it was 5300 nM.
For the compound `C[C@@H]1C(=O)N(C)c2ccc(Nc3cccc(C(=O)NC4CCN(C)CC4)c3)nc2N1c1ccc(F)cc1` (stereo in doubt) [Example 115, 3-{[(3R)-4-(4-fluorophenyl)-1,3-dimethyl-2-oxo-1,2,3,4-tetrahydropyrido[2,3-b]pyrazin-6-yl]amino}-N-(1-methylpiperidin-4-yl)benzamide], the IC50 stood at 706 nM in experiment [1] and 379 nM in experiment [2].
For `C[C@H]1C(=O)N(C)c2ccc(Nc3cccc(C(=O)NC4CCN(C)CC4)c3)nc2N1c1ccc(F)cc1` (stereo in doubt) [Example 116, 3-{[(3S)-4-(4-fluorophenyl)-1,3-dimethyl-2-oxo-1,2,3,4-tetrahydropyrido[2,3-b]pyrazin-6-yl]amino}-N-(1-methylpiperidin-4-yl)benzamide] the same measures were greater than 40000 nM and 6750 nM.
For `COCCN1c2nc(Nc3cccc(C(=O)N4CCN(C)CC4)c3)ccc2N(C)C(=O)[C@H]1C` (stereo in doubt) [Example 117, (3R)-4-(2-methoxyethyl)-1,3-dimethyl-6-({3-[(4-methylpiperazin-1-yl)carbonyl]phenyl}amino)-3,4-dihydropyrido[2,3-b]pyrazin-2(1H)-one] the same measures were 434 nM and 489 nM.
For `COCCN1c2nc(Nc3cccc(C(=O)N4CCN(C)CC4)c3)ccc2N(C)C(=O)[C@@H]1C` (stereo in doubt) [Example 118, (3S)-4-(2-methoxyethyl)-1,3-dimethyl-6-({3-[(4-methylpiperazin-1-yl)carbonyl]phenyl}amino)-3,4-dihydropyrido[2,3-b]pyrazin-2(1H)-one] the same measures were greater than 40000 nM and 18200 nM.
For `COCCN1c2nc(Nc3cccc(C(=O)NC4CCN(C)CC4)c3)ccc2N(C)C(=O)[C@H]1C` (stereo in doubt) [Example 119, 3-{[(3R)-4-(2-methoxyethyl)-1,3-dimethyl-2-oxo-1,2,3,4-tetrahydropyrido[2,3-b]pyrazin-6-yl]amino}-N-(1-methylpiperidin-4-yl)benzamide], the 50% inhibitory concentration (IC50) was found to be 428 nM in experiment [1] and 742 nM in experiment [2].
On to `COCCN1c2nc(Nc3cccc(C(=O)NC4CCN(C)CC4)c3)ccc2N(C)C(=O)[C@@H]1C` (stereo in doubt) [Example 120, 3-{[(3S)-4-(2-methoxyethyl)-1,3-dimethyl-2-oxo-1,2,3,4-tetrahydropyrido[2,3-b]pyrazin-6-yl]amino}-N-(1-methylpiperidin-4-yl)benzamide], for which the values for the IC50 in experiment [1] and in experiment [2] were 4460 nM and 6870 nM, respectively.
The compound `COc1ccc(C(=O)N[C@H]2CC[C@H](N3CCN(CC4CC4)CC3)CC2)cc1Nc1ccc2c(n1)N(C1CCOCC1)[C@H](C)C(=O)N2C` [Example 18, N-{trans-4-[4-(Cyclopropylmethyl)piperazin-1-yl]cyclohexyl}-3-{[(3R)-1,3-dimethyl-2-oxo-4-(tetrahydro-2H-pyran-4-yl)-1,2,3,4-tetrahydropyrido[2,3-b]pyrazin-6-yl]amino}-4-methoxybenzamide] yielded an IC50 in experiment [2] of 149 nM.
Still for that read-out and setting: with `C[C@@H]1C(=O)N(C)c2ccc(Nc3cccc(S(=O)(=O)N4CC(F)(F)C4)c3)nc2N1C1CCOCC1` [Example 31, (3R)-6-({3-[(3,3-Difluoroazetidin-1-yl)sulphonyl]phenyl}amino)-1,3-dimethyl-4-(tetrahydro-2H-pyran-4-yl)-3,4-dihydropyrido[2,3-b]pyrazin-2(1H)-one] the figure was 40 nM; with `CC(C)NS(=O)(=O)c1cccc(Nc2ccc3c(n2)N(C2CCOCC2)[C@H](C)C(=O)N3C)c1` [Example 42, 3-{[(3R)-1,3-dimethyl-2-oxo-4-(tetrahydro-2H-pyran-4-yl)-1,2,3,4-tetrahydropyrido[2,3-b]pyrazin-6-yl]amino}-N-isopropylbenzene-sulphonamide], 36 nM; with `COc1ccc(C(=O)N[C@H]2CC[C@H](N3CCN(CC4CC4)CC3)CC2)cc1Nc1ccc2c(n1)N(C1CCOCC1)[C@H](C)C(=O)N2C` [Example 87, N-{trans-4-[4-(cyclo-propylmethyl)piperazin-1-yl]cyclohexyl}-3-{[(3R)-1,3-dimethyl-2-oxo-4-(tetrahydro-2H-pyran-4-yl)-1,2,3,4-tetrahydropyrido[2,3-b]pyrazin-6-yl]amino}-4-methoxybenzamide], 351 nM.
